Measured values: paper PMC8582737 (International Journal of Molecular Sciences, 2021)
In brackets after ≈: the same amount, converted by molar mass.

Experiments:
[1] = Solubility of KTZ, shake-flask method; type: physicochemical; details: for solubility at 24 h: 25 °C; for Improvement of KTZ solubility by TTO: 5% TTO
Description: Mixtures were mechanically shaken for 24 h at 25 °C ± 0.5 °C and allowed to stand for 24 h to attain equilibrium. Then, the samples were centrifuged at 4000 rpm for 15 min, followed by filtration through a CA membrane filter (0.45 μm), diluted appropriately with methanol, and analyzed by the HPLC method at 231 nm against a standard.

[2] = cited from earlier work

## CC(=O)N1CCN(c2ccc(OCC3COC(Cn4ccnc4)(c4ccc(Cl)cc4Cl)O3)cc2)CC1 (centres unmarked) [KTZ, Ketoconazole]
[1]; Castor oil
  solubility at 24 h: 93.5 ± 8.39 µg/mL (≈ 176 µM)
[1]; Isopropyl myristate
  solubility at 24 h: 94 ± 3.26 µg/mL (≈ 177 µM)
[1]; Paraffin oil
  solubility at 24 h: 17 ± 2.84 µg/mL (≈ 32 µM)
[1]; Water
  solubility at 24 h: 9.56 ± 0.09 µg/mL (≈ 18 µM)
[1]; castor oil with 5% TTO, oil or lipid, thermodynamic from solid, Castor oil + TTO 5%
  solubility at 24 h: 155 ± 7.94 µg/mL
[1]; castor oil
  Improvement of KTZ solubility by TTO: about 2 fold
[1]; isopropyl myristate with 5% TTO, oil or lipid, thermodynamic from solid, Isopropyl myristate + TTO 5%
  solubility at 24 h: 131 ± 5.13 µg/mL
[1]; isopropyl myristate
  Improvement of KTZ solubility by TTO: about 2 fold
[1]; paraffin oil with 5% TTO, Paraffin oil + TTO 5%
  solubility at 24 h: 80.1 ± 6.5 µg/mL
[1]; paraffin oil
  Improvement of KTZ solubility by TTO: 5 fold
[1]; water with 5% TTO, aqueous with cosolvent or surfactant or cyclodextrin, thermodynamic from solid, Water + TTO 5%
  solubility at 24 h: 35.7 ± 4.59 µg/mL
[1]; water
  Improvement of KTZ solubility by TTO: ~4 fold
[2]
  Solubility in water: 0.0866 to 40.0 µg/mL
  pH of highest stability: 6–8
